Results on 6 compounds are retold here after US10638756B2, “Molecules having pesticidal utility, and intermediates, compositions, and processes, related thereto” (Dow AgroSciences LLC, priority 2017, dated 2020).

Usually mortality stands for the share of the test organisms that died.

Assay type in all cases: in vivo
Data set [1] deals with Green Peach Aphid (Myzus persicae). The experiment in a line: Bioassay on Green Peach Aphid (GPA), foliar spray on cabbage seedlings. As to conditions: 72 h, 200 ppm foliar spray on cabbage seedlings, three days, Abbott corrected % control, read-out: GPA % Control (or Mortality) rating. The method, then: Certain molecules disclosed in this document were tested against GPA using procedures described in the following example. In the reporting of the results, the “GPA & YFM Rating Table” was used (See Table Section).
Cabbage seedlings grown in 3-inch pots, with 2-3 small (3-5 cm) true leaves, were used as test substrate. The seedlings were infested with 20-50 GPA (wingless adult and nymph stages) one day prior to chemical application. Four pots with individual seedlings were used for each treatment. Test molecules (2 mg) were dissolved in 2 mL of acetone/methanol (1:1) solvent, forming stock solutions of 1000 ppm test molecule. The stock solutions were diluted 5× with 0.025% Tween 20 in water to obtain the solution at 200 ppm test molecule. A hand-held aspirator-type sprayer was used for spraying a solution to both sides of […] leaves until runoff. Reference plants (solvent check) were sprayed with the diluent only containing 20% by volume of acetone/methanol (1:1) solvent. Treated plants were held in a holding room for three days at approximately 25° C. and ambient relative humidity (RH) prior to grading. Evaluation was conducted by counting the number of live aphids per plant under a microscope. Percent control was measured using Abbott's correction formula (W. S. Abbott, “A Method of Computing the Effectiveness of an Insecticide” J. Econ. Entomol. 18 (1925), pp. 265-267) as follows. Corrected % Control=100*(X−Y)/X where X=No. of live aphids on solvent check plants and Y=No. of live aphids on treated plants. The results are indicated in the table entitled “Table ABC: Biological Results” (See Table Section).

Data set [2] concerns Cabbage Looper (Trichoplusia ni). The experiment in a line: Bioassay on Cabbage Looper (CL), 128-well diet tray assay. The note with it: 168 h, 50 μg/cm^2 on artificial diet, second instar larvae, five to seven days, read-out: CL % Control (or Mortality) rating. A digest of the protocol:
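One to five second-instar larvae per well on artificial diet surface-treated with 50 μg/cm^2 test molecule (applied in 90:10 acetone-water, dried). Held 5–7 days at 25° C, 14:10 light-dark; percent mortality recorded per well and averaged over eight wells.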

The subject of data set [3] is Beet Armyworm (Spodoptera exigua). The experiment in a line: Bioassay on Beet Armyworm (BAW), 128-well diet tray assay. The note with it: for mortality at 50 µg/cm2: Spodoptera exigua, 168 h, 50 μg/cm^2 on artificial diet, second instar larvae, five to seven days, read-out: BAW % Control (or Mortality) rating.
Data set [4] relates to Yellow Fever Mosquito (Aedes aegypti). The note with it: about 1 day-old larvae, 3 days, scored on mortality. The protocol:
Certain molecules disclosed in this document were tested against YFM using procedures described in the following paragraph. In the reporting of the results, the “GPA & YFM Rating Table” was used (See Table Section).
Master plates containing 400 μg of a molecule dissolved in 100 μL of dimethyl sulfoxide (DMSO) (equivalent to a 4000 ppm solution) are used. A master plate of assembled molecules contains 15 μL per well. To this plate, 135 μL of a 90:10 water/acetone mixture is added to each well. A robot (Biomek® NXP Laboratory Automation Workstation) is programmed to dispense 15 μL aspirations from the master plate into an empty 96-well shallow plate (“daughter” plate). There are 6 reps (“daughter” plates) created per master. The created “daughter” plates are then immediately infested with YFM larvae.
The day before plates are to be treated, mosquito eggs are placed in Millipore water containing liver powder to begin hatching (4 g. into 400 mL). After the “daughter” plates are created using the robot, they are infested with 220 μL of the liver powder/larval mosquito mixture (about 1 day-old larvae). After plates are infested with mosquito larvae, a non-evaporative lid is used to cover the plate to reduce drying. Plates are held at room temperature for 3 days prior to grading. After 3 days, each well is observed and scored based on mortality. The results are indicated in the table entitled “Table ABC: Biological Results” (See Table Section).

`O=C(NNc1ncccn1)c1ccc(/C(F)=C/C(c2cc(Cl)c(F)c(Cl)c2)C(F)(F)F)cc1C(F)(F)F` (centres unmarked) [F4, (Z)-4-(3-(3,5-Dichloro-4-fluorophenyl)-1,4,4,4-tetrafluorobut-1-en-1-yl)-N′-(pyrimidin-2-yl)-2-(trifluoromethyl)benzohydraziderazide]: the mortality at 200 ppm in data set [1] is 0 to 80%. Further, the mortality at 50 µg/cm2 in data set [2] and in data set [3] was 50 to 100% each time.

Regarding `O=C(Nn1ccnc1)c1ccc(/C(F)=C/C(c2cc(Cl)c(Cl)c(Cl)c2)C(F)(F)F)cc1C(F)(F)F` (centres unmarked) [F10, (Z)—N-(1H-Imidazol-1-yl)-4-(1,4,4,4-tetrafluoro-3-(3,4,5-trichlorophenyl)but-1-en-1-yl)-2-(trifluoromethyl)benzamide], the mortality at 200 ppm in data set [1] lay within 0 to 80%. Besides, the mortality at 50 µg/cm2 in data set [2] and in data set [3] was 50 to 100% each time.

As for `O=C(NNc1ncc(Cl)cn1)c1ccc(/C(F)=C/C(c2cc(Cl)c(Cl)c(Cl)c2)C(F)(F)F)cc1C(F)(F)F` (centres unmarked) [F63, (Z)—N′-(5-Chloropyrimidin-2-yl)-4-(1,4,4,4-tetrafluoro-3-(3,4,5-trichlorophenyl)but-1-en-1-yl)-2-(trifluoromethyl)benzohydrazide], the mortality at 200 ppm in data set [1] is 0 to 80%. Besides, in data set [4], the “YFM % Control (or Mortality) rating” value is “A (80-100)”. The mortality at 50 µg/cm2 in data set [2] and in data set [3] was 50 to 100% each time.

As for `CN(NC(=O)c1ccc(/C(F)=C/C(c2cc(Cl)c(Cl)c(Cl)c2)C(F)(F)F)cc1C(F)(F)F)c1ncccn1` (centres unmarked) [F71, (Z)—N′-Methyl-N′-(pyrimidin-2-yl)-4-(1,4,4,4-tetrafluoro-3-(3,4,5-trichlorophenyl)but-1-en-1-yl)-2-(trifluoromethyl)benzohydrazide], the mortality at 200 ppm in data set [1] lay in the range of 80 to 100%. In addition, the mortality at 50 µg/cm2 in data set [2] and in data set [3] was 50 to 100% each time.

Regarding `O=C(NNc1ncccn1)c1ccc(/C(F)=C/C(c2cc(Cl)c(Cl)c(Cl)c2)C(F)(F)F)cc1C(F)(F)F` (centres unmarked) [F97, (Z)—N′-(pyrimidin-2-yl)-4-(1,4,4,4-tetrafluoro-3-(3,4,5-trichlorophenyl)but-1-en-1-yl)-2-(trifluoromethyl)benzohydrazide], in data set [1], the mortality at 200 ppm lay in the range of 80 to 100%. For the same compound, the mortality at 50 µg/cm2 in data set [2] and in data set [3] was 50 to 100% each time. Also, the “BAW (Table CD-1)” value in data set [3] (0.05 μg/cm^2), in data set [3] (5.0 μg/cm^2) and in data set [3] (50 μg/cm^2) was 100 throughout.

Take `C#CCN(C(=O)c1ccc(/C(F)=C/C(c2cc(Cl)c(Cl)c(Cl)c2)C(F)(F)F)cc1C(F)(F)F)N(C)c1ncccn1` (centres unmarked) [F180, (Z)—N′-Methyl-N-(prop-2-yn-1-yl)-N′-(pyrimidin-2-yl)-4-(1,4,4,4-tetrafluoro-3-(3,4,5-trichlorophenyl)but-1-en-1-yl)-2-(trifluoromethyl)benzohydrazide]: in data set [1], the mortality at 200 ppm was in the range of 0 to 80%. The “YFM % Control (or Mortality) rating” value in data set [4] is “A (80-100)”. Moreover, the mortality at 50 µg/cm2 in data set [2] and in data set [3] was 50 to 100% throughout.
